# Assay results from US20160318933A1, “FUSED PYRAZOLE DERIVATIVE” (SUMITOMO DAINIPPON PHARMA CO., LTD., priority 2013, published 2016).
# Biological target: T1, human brain-derived dopamine D4 receptor (Homo sapiens, UniProt P21917)
# T1 construct: expressed in transfected cells; host or cells: CHO (CHO-K1) or HEK293 cells
# T1 sequence (P21917 1-419): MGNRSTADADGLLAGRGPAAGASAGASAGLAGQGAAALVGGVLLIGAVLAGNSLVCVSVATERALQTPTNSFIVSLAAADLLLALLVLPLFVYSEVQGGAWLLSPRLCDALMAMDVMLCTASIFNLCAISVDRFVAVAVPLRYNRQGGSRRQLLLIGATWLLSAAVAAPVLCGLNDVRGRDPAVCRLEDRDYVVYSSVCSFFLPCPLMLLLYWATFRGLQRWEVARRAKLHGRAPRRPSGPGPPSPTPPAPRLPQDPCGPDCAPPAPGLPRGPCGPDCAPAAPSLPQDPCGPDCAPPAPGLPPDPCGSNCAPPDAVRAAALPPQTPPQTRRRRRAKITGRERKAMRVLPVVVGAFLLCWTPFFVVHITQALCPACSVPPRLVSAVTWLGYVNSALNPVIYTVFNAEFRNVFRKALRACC
# Assay: Agonistic activity in G protein dependent pathway of dopamine D4 receptor (aequorin intracellular calcium luminescence, FDSS)
# Type: cell-based
# Conditions: for EC50: concentration required to achieve a 50% response of Emax, CHO-K1 or HEK293 cells transfected with D4 receptor; for Emax: read-out: Maximal activity on D4 receptor (%)
# Description: The G protein dependent pathway is a pathway for transmitting signals in cells via a second messenger by stimulating a G protein through the binding of guanosine triphosphate (GTP) to the G protein. When GPCRs are activated by the binding of a ligand, a G protein binds to the GPCRs, and thereby GTP binds to a Gα subunit that is one of G protein subunits and a Gγβ subunit is dissociated. The activated Gα subunit regulates intracellular cAMP levels by the activation or inhibition of an adenylate cyclase, and regulates intracellular calcium levels by the activation of phospholipase C to transmit signals in cells.
# The agonistic activities of the present compounds in the G protein dependent pathway were evaluated on the basis of intracellular calcium levels as follows. CHO-K1 or HEK293 cell lines transfected with D4 receptor genes were seeded in a 384-well plate, and incubated in a CO2 incubator at 37° C. for 24 hours, and then a solution of the present compound in DMSO was added into cells preloaded with coelenterazine to measure the change in luminescent signals with a FDSS (Hamamatsu Photonics K.K.). […] The agonistic activity of the present compound was calculated according to the measured luminescent signals, as the maximal activity (Emax) of the present compound. EC50 value was calculated as the concentration of the present compound required to achieve a 50% response of Emax.
SMILES,EC50 [nM],Emax [%]
Cc1ncc(CN2CCn3nc(-c4ncccc4F)cc3C2)c(C)n1 [Example 191],43,76
Cc1ccc(CN2CCn3nc(-c4ccccn4)cc3C2)c(N)n1 [Example 19],54,63
Cc1cccnc1-c1cc2n(n1)CCN(Cc1cnn3ccccc13)C2 [Example 89],47,39
Cc1cccc(CN2CCn3nc(-c4ccccn4)cc3C2)c1 [Example 27],0.5,62
Cc1cccnc1-c1cc2n(n1)CCN(Cc1ccc(F)cc1)C2 [Example 58],22,81
"Cc1cccnc1-c1cc2n(n1)CCN(Cc1cnc(C(F)(F)F)nc1N)C2 [Example 84, 5-{[2-(3-Methylpyridin-2-yl)-6,7-dihydropyrazolo[1,5-a]pyrazin-5(4H)-yl]methyl}-2-(trifluoromethyl)pyrimidine-4-amine]",118,68
O=C1NCc2cc(CN3CCn4nc(-c5ccccn5)cc4C3)ccc21 [Example 51],70,32
Cc1ccc(CN2CCn3nc(-c4ncccc4F)c(C)c3C2)cn1 [Example 121],46,84
Cc1cnc(CN2CCn3nc(-c4ncccc4C)cc3C2)c(F)c1 [Example 184],116,51
Cc1cccnc1-c1cc2n(n1)CCN(Cc1c3ccccc3nn1C)C2 [Example 149],107,53
Fc1cccnc1-c1cc2n(n1)CCN(Cc1ccc(C(F)(F)F)cn1)C2 [Example 163],55,57
Fc1ccc(CN2CCn3nc(-c4ncccc4F)cc3C2)nc1 [Example 160],111,53
Cc1cccnc1-c1cc2n(n1)CCN(Cc1ccc(C(F)(F)F)nc1N)C2 [Example 105],69,79
Cc1cccc(CN2CCn3nc(-c4ncccc4C(F)(F)F)cc3C2)n1 [Example 152],107,74
Cc1cccnc1-c1cc2n(n1)CCN(Cc1ccc3c(c1)NC(=O)CC3)C2 [Example 41],46,54
Cc1cccnc1-c1cc2n(n1)CCN(Cc1ccc(CF)cc1)C2 [Example 49],19,84
Fc1cccnc1-c1cc2n(n1)CCN(Cc1ccc(C(F)(F)F)cc1)C2 [Example 68],69,64
Cn1c(CN2CCn3nc(-c4ncccc4F)cc3C2)cc2ccccc21 [Example 150],38,71
COc1ccccc1-c1cc2n(n1)CCN(Cc1ccc(F)c(C#N)c1)C2 [Example 18],60,83
Cc1cc(CN2CCn3nc(-c4ncccc4C)cc3C2)cnc1C [Example 188],44,63
Nc1nc(C(F)(F)F)ccc1CN1CCn2nc(-c3ccccn3)cc2C1 [Example 21],47,59

SMILES,EC50 [nM],Emax [%]
Cc1cccnc1-c1cc2n(n1)CCN(Cc1ccc(Cl)cc1)C2 [Example 56],12,78
Fc1ccc2[nH]nc(CN3CCn4nc(-c5ccccn5)cc4C3)c2c1 [Example 4],17,60
Cc1cccnc1-c1cc2n(n1)CCN(Cc1ncn3ccccc13)C2 [Example 96],37,57
Cc1cccnc1-c1cc2n(n1)CCN(Cc1n[nH]c3c(F)cccc13)C2 [Example 40],11,70
Fc1cccnc1-c1cc2n(n1)CCN(Cc1c[nH]c3ccccc13)C2 [Example 165],22,65
Fc1cccnc1-c1cc2n(n1)CCN(Cc1ccccc1)C2 [Example 79],3.4,83
Cc1cccnc1-c1nn2c(c1C)CN(Cc1ccccc1)CC2 [Example 73],30,58
Cc1cccnc1-c1cc2n(n1)CCN(Cc1cccc(CF)n1)C2 [Example 137],10,82
Cc1cccnc1-c1cc2n(n1)CCN(Cc1cnc(C(F)F)nc1)C2 [Example 196],55,29
Cc1cccnc1-c1cc2n(n1)CCN(Cc1ccc(CO)cn1)C2 [Example 157],127,50
Cc1ccc(CN2CCn3nc(-c4ncccc4F)cc3C2)nc1 [Example 109],36,68
Cc1cccnc1-c1cc2n(n1)CCN(Cc1ccc(C(F)(F)F)cc1F)C2 [Example 47],71,65
Cc1ccc(CN2CCn3nc(-c4ncccc4C)cc3C2)c(N)n1 [Example 43],15,77
Cc1cccnc1-c1cc2n(n1)CCN(Cc1cnc(C(C)C)nc1)C2 [Example 203],37,54
Cc1cccnc1-c1cc2n(n1)CCN(Cc1ccc(C(F)(F)F)cc1)C2 [Example 55],67,92
Cc1ccc2c(CN3CCn4nc(-c5ncccc5C)cc4C3)n[nH]c2c1 [Example 101],78,67
Cc1c(-c2ccccn2)nn2c1CN(Cc1ccccc1)CC2 [Example 81],0.7,89
Cc1cccnc1-c1cc2n(n1)CCN(Cc1cc3ccccc3n1C)C2 [Example 146],90,48
Cc1ccc(CN2CCn3nc(-c4ncccc4C)cc3C2)cc1C#N [Example 99],1.1,77
c1ccc(-c2cc3n(n2)CCN(Cc2n[nH]c4ccccc24)C3)nc1 [Example 3],19,60
COc1ccccc1-c1cc2n(n1)CCN(Cc1ccc(C)nc1N)C2 [Example 16],138,51

SMILES,EC50 [nM],Emax [%]
Cc1c(-c2ncccc2F)nn2c1CN(Cc1ccc3c(n1)CCC3)CC2 [Example 125],13,98
Cc1cccnc1-c1cc2n(n1)CCN(Cc1cccc(F)c1)C2 [Example 61],34,57
Cc1cccnc1-c1cc2n(n1)CCN(Cc1cccc(C#N)c1)C2 [Example 62],25,89
c1ccc(-c2cc3n(n2)CCN(Cc2ccc4[nH]ncc4c2)C3)nc1 [Example 13],116,65
O=C1CCc2ccc(CN3CCn4nc(-c5ccccn5)cc4C3)cc2N1 [Example 20],51,42
Cc1cccc(CN2CCn3nc(-c4ncccc4C)c(C)c3C2)n1 [Example 115],57,105
Cc1ncc(CN2CCn3nc(-c4ncccc4F)cc3C2)cn1 [Example 171],252,48
"CN1Cc2ccc(CN3CCn4nc(-c5ccccn5)cc4C3)cc2C1 [Example 23, 5-[(2-Methyl-2,3-dihydro-1H-isoindol-5-yl)methyl]-2-(pyridin-2-yl)-4,5,6,7-tetrahydropyrazolo[1,5-a]pyrazine]",25,71
Cc1cccnc1-c1cc2n(n1)CCN(Cc1ccc(C(F)F)cc1)C2 [Example 80],18,70
c1ccc(-c2cc3n(n2)CCN(Cc2cccc4[nH]cnc24)C3)nc1 [Example 14],84,46
Cc1cccnc1-c1cc2n(n1)CCN(Cc1n[nH]c3ccccc13)C2 [Example 35],4.3,87
Cc1ccc(CN2CCn3nc(-c4ncccn4)cc3C2)cc1 [Example 176],41,39
"COc1ccccc1-c1cc2n(n1)CCN(Cc1ccc(F)cc1F)C2 [Example 25, 5-(2,4-Difluorobenzyl)-2-(2-methoxyphenyl)-4,5,6,7-tetrahydropyrazolo[1,5-a]pyrazine]",100,57
Fc1cccnc1-c1cc2n(n1)CCN(Cc1ccc3c(n1)CCCC3)C2 [Example 130],20,71
Cc1cccnc1-c1cc2n(n1)CCN(Cc1ccc3c(n1)CCCC3)C2 [Example 112],41,66
N#Cc1ccc(CN2CCn3nc(-c4ncccc4F)cc3C2)cc1 [Example 69],59,50
Cc1c(-c2ncccc2F)nn2c1CN(Cc1ccc(C(F)(F)F)nc1)CC2 [Example 127],56,89
Cc1ccncc1CN1CCn2nc(-c3ncccc3C)cc2C1 [Example 111],159,22
Cc1cccnc1-c1cc2n(n1)CCN(Cc1ccc(C(F)(F)F)c(C#N)c1)C2 [Example 86],52,85
